The subject of one data set is HepG2. In words: Cytotoxicity against human HepG2 cells assessed as cell viability up to 30 uM after 48 hrs by WST-1 assay. The conditions noted are these: hepg2, 48 h. The class given is cell-based.
Data set [1] concerns the target T1, Peroxisome proliferator-activated receptor gamma (Homo sapiens) (UniProt P37231).
T1 sequence (whole entry): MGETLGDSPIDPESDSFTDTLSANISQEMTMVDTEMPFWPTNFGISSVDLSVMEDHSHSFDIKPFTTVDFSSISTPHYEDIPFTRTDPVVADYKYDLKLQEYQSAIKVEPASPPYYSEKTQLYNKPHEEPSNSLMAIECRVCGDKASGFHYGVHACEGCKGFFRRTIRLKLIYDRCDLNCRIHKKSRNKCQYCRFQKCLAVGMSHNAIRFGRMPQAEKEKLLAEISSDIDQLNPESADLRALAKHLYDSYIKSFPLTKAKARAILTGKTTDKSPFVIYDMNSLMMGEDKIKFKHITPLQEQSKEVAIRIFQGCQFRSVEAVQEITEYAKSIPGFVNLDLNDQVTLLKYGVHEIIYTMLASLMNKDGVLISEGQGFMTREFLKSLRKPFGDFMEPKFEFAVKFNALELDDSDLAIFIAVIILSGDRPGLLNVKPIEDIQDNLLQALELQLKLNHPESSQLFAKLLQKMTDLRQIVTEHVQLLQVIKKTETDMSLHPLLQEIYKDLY
In words: Transactivation of PPARgamma in human primary preadipocytes assessed as increase in […] expression at 10 uM by qPCR method. The format is cell-based.

Data set [2] addresses T2, Peroxisome proliferator-activated receptor gamma (Mus musculus) (UniProt P37238).
T2 sequence (whole entry): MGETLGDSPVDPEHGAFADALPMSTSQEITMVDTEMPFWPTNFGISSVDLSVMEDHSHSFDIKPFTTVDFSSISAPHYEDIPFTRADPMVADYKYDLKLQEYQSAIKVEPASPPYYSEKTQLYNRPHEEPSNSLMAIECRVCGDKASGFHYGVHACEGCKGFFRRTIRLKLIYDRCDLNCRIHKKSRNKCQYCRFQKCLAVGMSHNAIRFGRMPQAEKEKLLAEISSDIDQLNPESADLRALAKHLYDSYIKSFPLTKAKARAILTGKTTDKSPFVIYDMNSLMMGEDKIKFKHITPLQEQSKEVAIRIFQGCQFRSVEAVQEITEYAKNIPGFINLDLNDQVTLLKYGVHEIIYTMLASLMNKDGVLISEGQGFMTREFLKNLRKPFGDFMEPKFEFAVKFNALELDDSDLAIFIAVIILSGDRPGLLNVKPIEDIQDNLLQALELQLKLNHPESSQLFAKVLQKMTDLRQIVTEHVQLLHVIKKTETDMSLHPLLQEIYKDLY
Briefly: Transactivation of PPARgamma in mouse 3T3L1 cells assessed as increase in FABP4 expression by qPCR method. The class given is cell-based. The conditions noted are these: 3T3-L1.

Data set [3] addresses T2, Peroxisome proliferator-activated receptor gamma (Mus musculus). Briefly: Transactivation of PPARgamma in mouse 3T3L1 cells assessed as adipocyte differentiation by Oil Red O staining-based assay. The class given is cell-based. The settings on record: 3T3-L1.
Another data set relates to Mus musculus. Briefly: Drug level in RjOrl:Swiss (CD-1) mouse plasma treated with Ethyl 2-Ethyl 3-[4-(N-((2-trifluoromethyl)benzyl)benzamide)]propanoate at 30 mg/kg, po administered as single dose. The format is ADME, organism-based. The settings on record: in vivo.
The target in data set [4] is T1, Peroxisome proliferator-activated receptor gamma (Homo sapiens). In words: Transactivation of PPARgamma in human primary preadipocytes assessed as increase in adiponectin expression at 10 uM by qPCR method. The format is cell-based.
The nature of data set [5]: Apparent oral clearance in RjOrl:Swiss (CD-1) mouse plasma at 30 mg/kg. The class given is ADME, organism-based.
The target of data set [6] is T2, Peroxisome proliferator-activated receptor gamma (Mus musculus). Briefly: Transactivation of PPARgamma in mouse 3T3L1 cells assessed as increase in […] expression by qPCR method. The format is cell-based. The conditions noted are these: 3T3-L1.
Data set [7] addresses T3, Peroxisome proliferator-activated receptor alpha (Homo sapiens, UniProt Q07869).
T3 sequence (Q07869 whole entry): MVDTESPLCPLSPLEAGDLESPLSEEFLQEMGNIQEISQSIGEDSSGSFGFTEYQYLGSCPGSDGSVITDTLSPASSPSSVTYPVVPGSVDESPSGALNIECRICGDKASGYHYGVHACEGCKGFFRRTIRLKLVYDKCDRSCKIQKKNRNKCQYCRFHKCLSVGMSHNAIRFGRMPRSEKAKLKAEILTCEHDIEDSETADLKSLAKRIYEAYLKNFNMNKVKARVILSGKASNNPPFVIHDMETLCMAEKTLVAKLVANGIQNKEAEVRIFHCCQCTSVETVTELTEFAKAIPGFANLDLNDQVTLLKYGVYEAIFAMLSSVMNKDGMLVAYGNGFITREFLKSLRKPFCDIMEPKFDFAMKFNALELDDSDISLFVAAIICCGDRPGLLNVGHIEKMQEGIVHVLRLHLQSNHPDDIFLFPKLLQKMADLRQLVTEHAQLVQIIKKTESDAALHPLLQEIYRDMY
The conditions noted are these: cos-7.
Description: Transactivation of human PPARalpha expressed in African green monkey COS7 cells incubated overnight by dual-glo luciferase reporter gene assay

The target of data set [8] is T4, Peroxisome proliferator-activated receptor alpha (Homo sapiens) (UniProt Q07869).
T4 sequence (whole entry): T3 sequence (Q07869 whole entry)
Briefly: Transactivation of human PPARalpha expressed in African green monkey COS7 cells incubated overnight by dual-glo luciferase reporter assay relative to GW7647. The settings on record: COS-7. The format is cell-based.

Data set [9] in a line: Solubility of the compound in water by microplate reader analysis. The class given is physicochemical.
In data set [10] the target is T1, Peroxisome proliferator-activated receptor gamma (Homo sapiens). Briefly: Transactivation of PPARgamma in human primary preadipocytes assessed as adipocyte differentiation by Oil Red O staining-based assay. The class given is cell-based.
The target in data set [11] is T2, Peroxisome proliferator-activated receptor gamma (Mus musculus). Briefly: Transactivation of PPARgamma in mouse 3T3L1 cells assessed as increase in adiponectin expression by qPCR method. The settings on record: 3T3-L1. The format is cell-based.
Data set [12] concerns the target T5, Peroxisome proliferator-activated receptor delta (Homo sapiens, UniProt Q03181).
T5 sequence (Q03181 whole entry): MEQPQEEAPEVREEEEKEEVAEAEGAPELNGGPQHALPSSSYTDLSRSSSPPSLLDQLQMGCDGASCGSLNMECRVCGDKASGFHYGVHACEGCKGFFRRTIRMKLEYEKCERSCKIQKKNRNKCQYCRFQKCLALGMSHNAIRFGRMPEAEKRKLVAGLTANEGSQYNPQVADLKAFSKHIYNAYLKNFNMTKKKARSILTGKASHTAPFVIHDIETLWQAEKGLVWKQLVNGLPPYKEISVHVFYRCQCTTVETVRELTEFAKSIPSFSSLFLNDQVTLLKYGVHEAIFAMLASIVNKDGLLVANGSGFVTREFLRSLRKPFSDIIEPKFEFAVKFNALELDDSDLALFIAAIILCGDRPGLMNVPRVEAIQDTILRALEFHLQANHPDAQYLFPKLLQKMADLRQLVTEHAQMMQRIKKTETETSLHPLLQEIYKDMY
Briefly: Transactivation of human PPARdelta expressed in African green monkey COS7 cells incubated overnight by dual-glo luciferase reporter gene assay. The format is cell-based. The settings on record: cos-7.

Data set [13] concerns the target T2, Peroxisome proliferator-activated receptor gamma (Mus musculus). Briefly: Transactivation of PPARgamma in mouse 3T3L1 cells assessed as increase in LPL expression by qPCR method. The format is cell-based. The conditions noted are these: 3T3-L1.
The target of data set [14] is T1, Peroxisome proliferator-activated receptor gamma (Homo sapiens). Briefly: Transactivation of PPARgamma in human primary preadipocytes assessed as increase in FABP4 expression at 10 uM by qPCR method. The format is cell-based.
Data set [15] shares this target. Briefly: Transactivation of PPARgamma in human primary preadipocytes assessed as increase in LPL expression at 10 uM by qPCR method. The format is cell-based.
For data set [16], the target named is T6, Peroxisome proliferator-activated receptor delta (Homo sapiens) (UniProt Q03181).
T6 sequence (whole entry): T5 sequence (Q03181 whole entry)
Briefly: Transactivation of human PPARdelta expressed in African green monkey COS7 cells at 10 uM incubated overnight by dual-glo luciferase reporter assay. The class given is cell-based. The settings on record: COS-7.

Each structure is given as a SMILES string. Converted amounts (≈) assume the structure as drawn. The source made the active and inactive calls. No cut-off for these calls is given here.

Regarding `CCC(Cc1ccc(C(=O)NCc2ccccc2C(F)(F)F)cc1)C(=O)O` (stereo not drawn), the Activity result with HepG2 was “Non-toxic”; in data set [2] it was “Dose-dependent effect”; in data set [3], “Dose-dependent effect”; in data set [6], “Dose-dependent effect”; in data set [10], “Dose-dependent effect”; in data set [11], “Dose-dependent effect”. Moreover, in [13], the Activity entry is “Dose-dependent effect”. Also, the result in data set [1], in data set [4], in data set [14] and in data set [15] was Active. Also, the Drug metabolism entry in the data set with Mus musculus is “metabolite_detected”. The CL/F in data set [5] is 31.7 mL/min/kg. The EC50 result in [7] and in data set [12] was “Not Active” in each case. Besides, the Emax result in data set [8] and in [16] was “inactive” in each case. In data set [9], the solubility turned out to be 75 µM (≈ 28.5 µg/mL).
